One assay relates to Escherichia coli. Kind of assay: Antimicrobial assessment of embedded polyester fabric on mineral salts agar. Format: cell-based. The following applies: agent embedded in three polyester fabrics ("144×90", "Spandex" 5% lycra with polyester, "Darlington"), incubated at 28° C. for 28 days. How it is done:
(§1) Three types of polyester fabric are embedded with bis-1′,3′-(1-hexadecyl)-1,4-diazoniabicyclo[2.2.2]octane-2′-propanol tetrachloride. Three polyester samples supplied by Gar are tested—a) “144×90”, b) “Spandex” which is 5% lycra with polyester, and c) “Darlington.” Each fabric sample is placed onto a mineral salts agar medium and then inoculated with either Staphylococus aureus or Escherichia coli. The inoculated specimen is then incubated at 28° C. for 28 days, in order to allow adequate time for bacterial growth. The fabric samples show a complete kill of both Staphylococus aureus and Escherichia coli.

For another assay, the system named is Staphylococus aureus. Described as above. It counts as cell-based. The following applies: agent embedded in three polyester fabrics ("144×90", "Spandex" 5% lycra with polyester, "Darlington"), incubated at 28° C. for 28 days. How it is done: as §1
A short description of assay [1]: Antimicrobial property of PVC surface with embedded agent. The settings on record: agent added to PVC heated to 350° F., 10 g/square meter of finished surface; after pressing and cooling. The method, then: To a preparation of PVC prepared for finishing and heated to 350° F. is added the agent bis-1′,3′-(1-hexadecyl)-1,4-diazoniabicyclo[2.2.2]octane-2′-propanol tetrachloride in an amount of 10 g/square meter of finished surface. After pressing and cooling samples the surface is antimicrobial.

The text below walks through data of patent publication US8470351B2, “Embedding antibiotic compounds in solid polymers” (The Research Foundation of the City University of New York, priority 2007, dated 2013).

Structures are written as SMILES.

Turning to `CCCCCCCCCCCCCCCC[N+]12CC[N+](CC(O)C[N+]34CC[N+](CCCCCCCCCCCCCCCC)(CC3)CC4)(CC1)CC2.[Cl-].[Cl-].[Cl-].[Cl-]` (stereo not drawn) [bis-1′,3′-(1-hexadecyl)-1,4-diazoniabicyclo[2.2.2]octane-2′-propanol tetrachloride], in the assay on Escherichia coli, the “kill of Escherichia coli on embedded fabric samples” value is “complete kill”. Also, in the assay on Staphylococus aureus, the “kill of Staphylococus aureus on embedded fabric samples” value is on record as “complete kill”. Also, the “antimicrobial property of the surface” value in assay [1] was “antimicrobial”.
